Among the data in ChEMBL document CHEMBL3244288, “Antimalarials. 11. Synthesis of 3- and 5-aminoquinolines as potential antimalarials” (J Med Chem, 1979) are Activity values, retold here.

Assay type in all cases: functional, organism-based
One assay concerns Leishmania donovani. In words: Antileishmanial activity against Leishmania donovani infected in golden hamster administered for 8 days.
Assay [1] concerns Plasmodium cynomolgi. Briefly: Antimalarial activity against sporozoite form of Plasmodium cynomolgi infected in juvenile rhesus monkey assessed as radical curative effect at 10 mg/kg, administered 6 doses. On the set-up: dose 10 mg/kg.
For the next assay, the system named is Plasmodium berghei. Briefly: Antimalarial activity against Plasmodium berghei infected in mouse assessed as increase in mean survival time at 640 mg/kg, sc. On the set-up: dose 640 mg/kg.
Assay [2] has as its system Plasmodium cynomolgi. Briefly: Antimalarial activity against sporozoite form of Plasmodium cynomolgi infected in juvenile rhesus monkey assessed as radical curative effect.

Active and inactive are the calls of the source. No cut-off for these calls is given here.

With `COc1ccc(NC(C)CCCN)c2cccnc12` (configuration not stated), the result with Leishmania donovani and in the assay with Plasmodium berghei was inactive. Moreover, the result with Plasmodium cynomolgi [1] was Active.
Consider `COc1cc(NC(C)CCCN)c2nccc(C)c2c1` (configuration not stated), for which the outcome in the assay with Plasmodium cynomolgi [2] was Active.
On to `COc1cc2ncc(NC(C)CCCN)c(C)c2cc1OC` (configuration not stated), for which the result in the assay with Leishmania donovani and with Plasmodium berghei was inactive.
As to `COc1ccc2ncc(NC(C)CCCN)c(C)c2c1` (configuration not stated), the outcome with Leishmania donovani and in the assay with Plasmodium berghei was inactive.
As for `CCN(CC)CCNc1ccc(OC)c2ncccc12`, the outcome with Leishmania donovani, with Plasmodium cynomolgi [2] and in the assay on Plasmodium berghei was inactive.
For `COc1cc(NC(C)CCCN)c2ncccc2c1` (configuration not stated), the result in the assay on Plasmodium cynomolgi [2] was Active.
With `COc1cc2cc(NC(C)CCCN)cnc2cc1OC` (configuration not stated), the outcome in the assay with Leishmania donovani and in the assay with Plasmodium berghei was inactive.
As to `CCN(CC)CCCC(C)Nc1ccc(OC)c2ncccc12` (configuration not stated), the result in the assay with Leishmania donovani, in the assay with Plasmodium cynomolgi [2] and in the assay with Plasmodium berghei was inactive.
